Where “and” joins values, the source holds several entries; their conditions need not be identical. Equal entries are not always repeated.
Key:
[1] = system: CRAF; design: method as in PMID 33355204; conditions: purified CRAF; reaction conditions not provided; cited from earlier work
[2] = molecular target: BRAF^WT (Homo sapiens, UniProt P15056); assay: TR-FRET kinase inhibition assay (MEK1 activation loop phosphorylation), BRAF^WT dimer
[3] = molecular target: CRAF^WT (Homo sapiens, UniProt P04049); assay: TR-FRET kinase inhibition assay (MEK1 activation loop phosphorylation), CRAF^WT dimer
[4] = molecular target: T1, ARAF^SSDD (Homo sapiens, UniProt P10398, G300S/Y301D/Y302D); assay: TR-FRET kinase inhibition assay (MEK1 activation loop phosphorylation), ARAF^SSDD dimer; conditions: for Hill slope: four-parameter fit, ARAF^SSDD 10 nM, ATP 200 μM
T1 sequence (P10398 274-606 G300S/Y301D/Y302D): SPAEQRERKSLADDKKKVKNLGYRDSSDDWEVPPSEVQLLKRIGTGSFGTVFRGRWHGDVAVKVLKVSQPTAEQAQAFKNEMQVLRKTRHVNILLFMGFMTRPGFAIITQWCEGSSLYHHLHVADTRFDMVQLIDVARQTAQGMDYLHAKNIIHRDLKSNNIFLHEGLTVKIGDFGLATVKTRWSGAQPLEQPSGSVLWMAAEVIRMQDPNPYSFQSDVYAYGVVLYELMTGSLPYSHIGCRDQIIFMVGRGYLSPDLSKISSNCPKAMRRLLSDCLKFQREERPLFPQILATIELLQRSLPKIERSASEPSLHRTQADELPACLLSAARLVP

[5] = molecular target: CRAF^SSDD (Homo sapiens, UniProt P04049, Y340D/Y341D); assay: TR-FRET kinase inhibition assay (MEK1 activation loop phosphorylation), CRAF^SSDD dimer
[6] = molecular target: BRAF^V600E (Homo sapiens, UniProt P15056, V600E); assay: TR-FRET kinase inhibition assay (MEK1 activation loop phosphorylation), BRAF^V600E monomer
[7] = design: method as in PMID 28082416, PMID 25792358; conditions: cited from earlier work

IC50 [2] [nM] | Ki [2] [nM] | Hill slope ([2]; four-parameter fit, BRAF^WT 1 nM, ATP 200 μM) | Ki [3] [nM] | IC50 ([3]; IC50, CRAF^WT 4 nM, ATP 200 μM, WT MEK1 substrate 250 nM, mean ± SD) | Hill slope ([3]; four-parameter fit, CRAF^WT 4 nM, ATP 200 μM) | IC50 [4] [nM] | Ki [4] [nM] | Hill slope [4] | IC50 [5] [nM] | Ki [5] [nM] | Hill slope ([5]; four-parameter fit, CRAF^SSDD 1 nM, ATP 200 μM) | IC50 [6] [nM] | Ki [6] [nM] | Hill slope ([6]; four-parameter fit, BRAF^V600E 1 nM, ATP 200 μM) | Inhibition of ARAF^SSDD at highest inhibitor concentration ([4]; 10 μM, the highest inhibitor concentration achievable in this assay) | Compound | IC50 [1] [nM] | Brain penetration [7]
13.4 ± 0.3 | 0.13 ± 0.08 | −2.73 ± 0.23 | 0.04 ± 0.03 | 3.7 nM and 3.66 nM | −2.57 ± 0.65 | 414 ± 186 | 5.71 ± 2.97 | −0.78 ± 0.05 | 3.64 ± 0.36 | 0.01 ± 0.001 | −3.03 ± 0.73 | 49.2 ± 3 | 2.04 ± 0.83 | −0.96 ± 0.09 | – | Cc1ccc(NC(=O)c2ccnc(C(F)(F)F)c2)cc1-c1cc(OCCO)nc(N2CCOCC2)c1 [Naporafenib, N-(3-(2-(2-Hydroxyethoxy)-6-morpholinopyridin-4-yl)-4-methylphenyl)-2-(trifluoromethyl)isonicotinamide] | 0.07 | –
– | – | – | – | – | – | > 3000 | > 40 | −1.12 ± 0.42 | – | – | – | – | – | – | did not completely inhibit | C[C@@H](NC(=O)c1ncnc(N)c1Cl)c1ncc(C(=O)Nc2cc(C(F)(F)F)c(Cl)cn2)s1 [Tovorafenib] | – | brain-penetrant

From paper PMC10149214 (The Journal of Biological Chemistry, 2023)
